We go through one compound from US20260297081A1, “COMPOUNDS AND METHODS OF TREATING CANCERS” (Cullgen Inc., priority 2023, published 2026).

Where only a bound is given, the exact number is not on record here.

Holding throughout (assay type): cell-based
In one assay the test system is HCC1428 cells. As to the kind of experiment: Flow cytometric analysis of Annexin V/7-AAD stained HCC1428 cells (apoptosis), 6 days (FIG. 3B). The conditions noted are these: HCC1428, dose approximating IC90, 6 days. How it is done: T47D cells were treated with DMSO, palbociclib, heterobifunctional compound CPD-10 for 6 days at doses approximating IC50and IC90 concentrations as indicated (FIG. 3A). HCC1428 cells were treated with DMSO, palbociclib, heterobifunctional compound CPD-10, or its negative control compound CPD-143 for 6 days at doses approximating IC90 concentrations as indicated (FIG. 3B). Cells were harvested by trypsinization, staining was carried out using the Annexin V Apoptosis Detection Kit. The percentages of early apoptotic (Annexin V^+7-AAD^−, lower right quadrant), late apoptotic (Annexin V^+7-AAD^+, upper right quadrant) and necrotic cells (Annexin V^−7-AAD^+, upper left quadrant) are indicated on dot plots.

For assay [1], the system named is CCND1, CCND3, and CDK4 in Calu-1 cells. As to the kind of experiment: Immunoblot of CCND1, CCND3 and CDK4 protein levels in Calu-1 cells (FIG. 1A, 4 hours). The conditions noted are these: Calu-1, reduction of CCND1, CCND3, and CDK4 protein levels. The procedure:
(§1) Specific exemplary heterobifunctional compounds were characterized in Calu-1, MCF7, T47D and other cells. Cells that express cyclin D1-3 and CDK4/6 proteins were treated with heterobifunctional compounds disclosed herein at indicated concentrations. MCF7 cells were deprived of serum for 2 hours followed by the treatment with heterobifunctional compounds. Cells were collected, lysed and subject to immunoblotting using an antibody specific to CCND1, CCND2, CCND3, CDK4, or FoxM1, cyclin A2, or phosphorylated Rb (S807/811) proteins. Tubulin or GAPDH was used as the loading control. DMSO treatment was used as the negative control.

Assay [2] relates to T47D palbo-resistant cells. Nature of the assay: CellTiter-Lumi cell viability assay, T47D palbo-resistant cells, 6 days (FIG. 4). The conditions noted are these: Homo sapiens, 144 h. The procedure: (§2) Furthermore, we developed one ER^+ breast cancer T47D model with acquired resistance after long period of treatment with 1 μM palbociclib (over IC90). Cells were deemed resistant when growing in the presence of palbo at the same rate as parental cells. Palbo resistance was determined by CellTiter-Lumi cell viability assay (FIG. 4, IC50>10,000 nM).

A further assay deals with CDK4 (Homo sapiens, UniProt P11802+Q16531). Nature of the assay: CDK4 percentage degradation in Calu-1 cells (Table 6). Details: Cells that express cyclin D1-3 and CDK4/6 proteins were treated with heterobifunctional compounds; endogenous in cells; host or cells: Calu-1. The conditions noted are these: 16 hours. The essentials: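 Calu-1 cells exposed to heterobifunctional compounds at 40 nM or 200 nM for 16 h. Cyclin D1 and CDK4 levels measured by Western blot of RIPA lysates (BCA-normalised loading), bands quantified by densitometry and expressed as percentage degradation.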

The next assay relates to CCND3. As to the kind of experiment: Immunoblotting of CCND3 protein level in Calu-1 and MCF7 cells (FIG. 1A-1B). The procedure: (§3) Calu-1 cells were treated with heterobifunctional compound CPD-10, or CDK4/6 inhibitor palbociclib at indicated concentrations for 4 hours (FIG. 1A). MCF7 cells were deprived of serum for 2 hours followed by treatment with CPD-10, or palbociclib at indicated concentrations for 24 hours (FIG. 1B).
(§4) Antibody and Reagent Anti-cyclin D1 (29785), anti-cyclin D2 (3741S), anti-cyclin D3 (2936S), anti-CDK4 (127905), anti-CDK6 (3136S), anti-phospho-Rb (8516S), anti-FoxM1 (54365), anti-cyclinA2(4656S), anti-vinculin antibody (187995) antibodies were purchased from Cell Signaling Technology. HRP-conjugated anti-α-tubulin antibody and anti-α-GAPDH antibody were purchased from GNI. Media, and other cell culture reagents were purchased from Thermo Fisher Scientific. CellTiter-Glo Luminescent Assay kit was purchased from Promega.
(§5) Calu-1, T47D, MCF7, HCC1428 and other cells were cultured at 37° C. with 5% CO2 in RPMI 1640 or DMEM medium supplemented with 10% fetal bovine serum. Cells were authenticated using the short tandem repeat (STR) assays. Mycoplasma test results were negative. For palbo-resistant cell model, T47D cells were cultured long-term to resistance in the presence of 1 μM Palbociclib. Cells were deemed resistant when growing in the presence of Palbo at the same rate as parental cells.
(§6) Cultured cells were washed with cold PBS once and lysed in cold RIPA buffer supplemented with protease inhibitors and phosphatase inhibitors (Beyotime Biotechnology). The solutions were then incubated at 4 ? for 30 min with gentle agitation to fully lysed cells. Cell lysates were centrifuged at 13,000 rpm for 10 min at 4 ? and pellets were discarded. Total protein concentrations in the lysates were determined following BCA assays (Beyotime Biotechnology). Cell lysates were mixed with Laemmli loading buffer and heated at 99° C. for 5 min. Proteins were resolved on SDS-PAGE and visualized using Western ECL Substrate kits on a ChemiDoc MP Imaging system (Bio-Rad). Protein bands were quantitated using the Image Lab software provided by Bio-Rad.

Assay [3] deals with CCND1, CCND3, and CDK4 in MCF7 cells. Nature of the assay: Immunoblot of CCND1, CCND3 and CDK4 protein levels in MCF7 cells under serum starvation (FIG. 1B, 24 hours). The conditions noted are these: MCF7, reduction of CCND1, CCND3, and CDK4 protein levels, serum starvation, 24 hours. The procedure: as §1
A further assay has as its system T47D parental cells. Nature of the assay: CellTiter-Lumi cell viability assay, T47D parental cells, 6 days (FIG. 4). Conditions: Homo sapiens, 144 h. The procedure:
as §2

The test system of the next assay is CCND1. Nature of the assay: Immunoblotting of CCND1 protein level in Calu-1 and MCF7 cells (FIG. 1A-1B). How it is done: as §3, §4, §5, §6
For a further assay, the system named is Calu-1 cells. As to the kind of experiment: Anti-proliferation (viability) of NSCLC Calu-1 cells, 3 days (Table 7, FIG. 2B). The conditions noted are these: Homo sapiens, 72 h; Calu-1 cells, 3 days, 10-point serial dilution; read-out: GI IC50 in Calu-1. The essentials:
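Viability after a 10-point dilution series of heterobifunctional compounds, with exposure of 6 days for ER+ breast T47D cells and 3 days for NSCLC Calu-1 cells.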

[4] abbreviates: MCF7 cells, serum deprived 2 hours, treated 24 hours.

Chain of CDK4 (P11802 2-303 limits assumed): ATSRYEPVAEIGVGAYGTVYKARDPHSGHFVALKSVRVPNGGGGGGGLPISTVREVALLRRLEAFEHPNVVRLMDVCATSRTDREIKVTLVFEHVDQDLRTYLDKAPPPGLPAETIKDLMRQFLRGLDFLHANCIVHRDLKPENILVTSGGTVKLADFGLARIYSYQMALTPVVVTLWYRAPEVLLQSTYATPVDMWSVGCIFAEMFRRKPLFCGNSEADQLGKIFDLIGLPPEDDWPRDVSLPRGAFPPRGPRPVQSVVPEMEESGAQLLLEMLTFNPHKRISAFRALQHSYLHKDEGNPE
Chain of CDK4 (P24385 whole entry partner): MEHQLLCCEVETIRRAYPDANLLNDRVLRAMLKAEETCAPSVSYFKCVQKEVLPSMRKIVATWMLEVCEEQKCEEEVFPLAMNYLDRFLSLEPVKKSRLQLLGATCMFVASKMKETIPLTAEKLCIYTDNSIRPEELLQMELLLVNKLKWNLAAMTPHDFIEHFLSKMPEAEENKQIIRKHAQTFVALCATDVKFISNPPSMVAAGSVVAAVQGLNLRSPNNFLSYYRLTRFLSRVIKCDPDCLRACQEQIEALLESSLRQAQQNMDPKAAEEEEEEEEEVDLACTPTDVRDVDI
Chain of CDK4 (Q16531 2-1140 limits assumed): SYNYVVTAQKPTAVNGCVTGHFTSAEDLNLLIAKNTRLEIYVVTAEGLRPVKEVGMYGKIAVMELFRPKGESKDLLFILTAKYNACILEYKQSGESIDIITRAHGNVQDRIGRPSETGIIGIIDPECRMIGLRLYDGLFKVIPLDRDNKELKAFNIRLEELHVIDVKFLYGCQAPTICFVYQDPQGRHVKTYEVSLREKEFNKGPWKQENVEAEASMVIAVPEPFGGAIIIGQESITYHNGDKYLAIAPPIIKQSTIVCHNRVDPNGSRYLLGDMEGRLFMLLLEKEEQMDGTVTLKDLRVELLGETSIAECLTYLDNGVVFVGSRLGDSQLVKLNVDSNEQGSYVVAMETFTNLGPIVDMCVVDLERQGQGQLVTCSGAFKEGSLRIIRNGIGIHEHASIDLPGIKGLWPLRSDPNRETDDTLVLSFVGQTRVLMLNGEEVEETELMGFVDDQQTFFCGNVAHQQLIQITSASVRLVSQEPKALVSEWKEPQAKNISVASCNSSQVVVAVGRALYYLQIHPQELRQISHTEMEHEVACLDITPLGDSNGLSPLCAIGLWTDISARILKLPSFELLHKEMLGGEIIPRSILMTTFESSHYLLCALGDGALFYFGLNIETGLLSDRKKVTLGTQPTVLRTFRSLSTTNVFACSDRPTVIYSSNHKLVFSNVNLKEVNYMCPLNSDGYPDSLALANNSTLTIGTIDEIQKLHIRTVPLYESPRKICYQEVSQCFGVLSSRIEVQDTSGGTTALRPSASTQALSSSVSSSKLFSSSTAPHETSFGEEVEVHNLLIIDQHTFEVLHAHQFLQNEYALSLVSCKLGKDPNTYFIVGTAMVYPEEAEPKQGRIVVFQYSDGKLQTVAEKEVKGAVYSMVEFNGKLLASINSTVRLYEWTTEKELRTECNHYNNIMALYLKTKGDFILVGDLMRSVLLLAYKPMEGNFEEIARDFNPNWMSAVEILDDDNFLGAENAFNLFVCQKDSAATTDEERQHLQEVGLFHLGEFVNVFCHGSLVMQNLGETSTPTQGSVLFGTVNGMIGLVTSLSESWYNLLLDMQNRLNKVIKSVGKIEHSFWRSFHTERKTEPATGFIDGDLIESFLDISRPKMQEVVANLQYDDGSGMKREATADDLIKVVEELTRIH

Take `CNc1ccc(C(=O)Nc2ccc(N(C)C)nn2)c(NCCCCCCCNC(=O)CN2CCN(c3ccc(Nc4ncc5c(C)c(C(C)=O)c(=O)n(C6CCCC6)c5n4)nc3)CC2)n1` [CPD-10, 2-((7-(2-(4-(6-((6-acetyl-8-cyclopentyl-5-methyl-7-oxo-7,8-dihydropyrido[2,3-d]pyrimidin-2-yl)amino)pyridin-3-yl)piperazin-1-yl)acetamido)heptyl)amino)-N-(6-(dimethylamino)pyridazin-3-yl)-6-(methylamino)nicotinamide]: in the assay on HCC1428 cells, the “Annexin V+ population” value was 55.8%. In addition, the DC50 in assay [1] is less than 5 nM; in assay [3], less than 20 nM. For the same compound, the results for the IC50 (in assay [2]; in the assay with T47D parental cells; with Calu-1 cells) were 33 nM, 19.5 nM and not above 10 nM, respectively. For the same compound, the inhibition at 0.04 µM against CDK4 (40 nM) was in the range of 50 to 80%. The same compound showed an inhibition at 0.2 µM on CDK4 (200 nM) of more than 80%. Also, the CCND3 protein level result is “reduced CCND1, CCND3, and CDK4 protein levels in a concentration-dependent manner in both cell lines” with CCND3 (Calu-1 cells, 4 hours); “reduced CCND1, CCND3, and CDK4 protein levels in a concentration-dependent manner in both cell lines” in the assay with CCND3 (setting [4]). Also, the CCND1 protein level entry was “reduced CCND1, CCND3, and CDK4 protein levels in a concentration-dependent manner in both cell lines” in the assay on CCND1 (Calu-1 cells, 4 hours); “reduced CCND1, CCND3, and CDK4 protein levels in a concentration-dependent manner in both cell lines” in the assay on CCND1 (setting [4]).
